How the values were obtained:
Assay type in all cases: cell-based
HepG2 = test: MTT cytotoxicity assay; conditions: Homo sapiens, HepG2, 72 h, 3 days
Method: (§1) The cytotoxicity of the prepared tri-and tetra-cyclic thiadiazolopyrimidine compounds were examined toward various cancer cell lines, such as liver and breast cancer (MCF-7), prostate cancer (PC3), laryngeal carcinoma (Hep-2), carcinoma (HepG2), and standard normal fibroblast cells (WI38) using the MTT assay[33] at the National Research Centre (Egypt). The cytotoxicity (Table 3) toward 50% inhibition of the cell viability (IC50 values) was assessed using 5-fluorouracil (5-Fu) as the standard anticancer drug.
(§2) The synthesized compounds were subjected to the MTT cytotoxicity assay on the basis of the cited literature.
(§3) MTT cytotoxicity assay: The technical method of MTT assay depends on the reduction of yellow 3-(4,5-methyl-2-thiazolyl)-2,5-diphenyl-2H-tetrazolium bromide (MTT) into purple formazan product, mainly by mitochondrial reductase activity inside the living cells. The cells used in cytotoxicity assay were cultured in RPMI 1640 medium supplemented with 10% fetal calf serum. Cells suspended in the medium (2×10^4 cells/mL) were plated in 96-well culture plates and incubated at 37 °C in a 5% CO2 incubator for 12 hours. The tested sample (2 μL) was added to the cells (2×10^4) in 96-well plates and cultured at 37 °C for 3 days. The cultured cells were mixed with 20 μL of MTT solution and incubated for 4 hours at 37 °C. The supernatant was carefully removed from each well, the formazan crystals were dissolved after addition of DMSO (100 μL) for each well to form the cellular reduction of MTT. After mixing with a mechanical plate mixer, the absorbance of each well was measured by a microplate reader using a test wavelength of 570 nm. The results were expressed as the IC50 values, which inducing 50% inhibition of cell growth of the treated cells when compared to the growth of control cells.

Hep-2 = test: MTT cytotoxicity assay; conditions: Homo sapiens, HEp-2, 72 h, 3 days
Method: as §1, §2, §3

MCF-7 = test: MTT cytotoxicity assay; conditions: Homo sapiens, MCF7, 72 h, 3 days
Method: as §1, §2, §3

PC3 = test: MTT cytotoxicity assay; conditions: Homo sapiens, PC-3, 72 h, 3 days
Method: as §1, §2, §3

[1] = MTT cytotoxicity assay on normal cells; conditions: human, WI38 normal fibroblast cells
Method: as §1, §2, §3

Compound	IC50 (HepG2) [µM]	IC50 (Hep-2) [µM]	IC50 (MCF-7) [µM]	IC50 (PC3) [µM]	IC50 at 3 days [1] [µM]
N#Cc1cn2ncsc2nc1=O [Compound 3, 6-cyano-7-oxo-7H-[1,3,4]thiadiazolo[3,2-a]pyrimidine]	82.3 ± 2.19	87.5 ± 2.35	78 ± 1.37	92.8 ± 3.48	7.82 ± 1.33
Nc1n[nH]c2c1c(=O)nc1scnn12 [Compound 4, 3-Aminopyrazolo[4,3-e][1,3,4]thiadiazolo[3,2-a]pyrimidin-4(1H)-one]	15.4 ± 0.45	78.4 ± 2.2	61.2 ± 1.11	72.3 ± 2.18	9.35 ± 0.21
Nc1nn(-c2ccccc2)c2c1c(=O)nc1scnn12 [Compound 5, 3-Amino-1-phenylpyrazolo[4,3-e][1,3,4]thiadiazolo[3,2-a]pyrimidin-4(1H)-one]	19.2 ± 0.52	61.2 ± 1.51	54.8 ± 1.48	61.8 ± 1.68	10.9 ± 0.83
N#Cc1c(N)nc(N)c2c(=O)nc3scnn3c12 [Compound 6, 6,8-Diamino-9-cyano-5-oxo-5H-pyrido[3,4-e][1,3,4]thiadiazolo[3,2-a]pyrimidine]	62.2 ± 1.07	57.6 ± 1.72	49.6 ± 1.25	66.3 ± 2.49	14.1 ± 0.36
CCOC(=O)c1c(N)nc(N)c2c(=O)nc3scnn3c12 [Compound 7, Ethyl 6,8-diamino-5-oxo-5H-pyrido[3,4-e][1,3,4]thiadiazolo[3,2-a]pyrimidine-9-carboxylate]	36.73 ± 0.17	34.2 ± 0.93	39.8 ± 0.68	61.8 ± 1.35	43.8 ± 0.52
CC(=O)C1=C(C)OC(N)=C2C(=O)N=C3SC=NN3C12 (stereo not drawn) [Compound 8a, 9-Acetyl-6-amino-8-methyl-5H,9aH-pyrano[3,4-e][1,3,4]thiadiazolo[3,2-a]pyrimidin-5-one]	37.12 ± 0.23	22.61 ± 0.21	33.42 ± 0.23	34.4 ± 0.64	27.5 ± 0.6
CC1=C(C(=O)c2ccccc2)C2C(=C(N)O1)C(=O)N=C1SC=NN12 (stereo not drawn) [Compound 8b, 6-Amino-9-benzoyl-8-methyl-5H,9aH-pyrano[3,4-e][1,3,4]thiadiazolo[3,2-a]pyrimidin-5-one]	21.62 ± 0.14	14.7 ± 0.43	14.7 ± 0.16	30.6 ± 0.57	42.8 ± 1.06
CC1=C(C#N)C2C(=C(N)O1)C(=O)N=C1SC=NN12 (stereo not drawn) [Compound 9a, 6-Amino-9-cyano-8-methyl-5-oxo-5H,9aH-pyrano[3,4-e][1,3,4]thiadiazolo[3,2-a]pyrimidine]	33.2 ± 0.36	20 ± 0.24	22.7 ± 0.29	46.4 ± 1.07	36.12 ± 0.28
N#CC1=C(c2ccccc2)OC(N)=C2C(=O)N=C3SC=NN3C12 (stereo not drawn) [Compound 9b, 6-Amino-9-cyano-5-oxo-8-phenyl-5H,9aH-pyrano[3,4-e][1,3,4]thiadiazolo[3,2-a]pyrimidine]	26.78 ± 0.18	11.7 ± 0.36	12.8 ± 0.26	38.4 ± 0.89	48.2 ± 1.47
Cc1n[nH]c2c1C1C(=C(N)O2)C(=O)N=C2SC=NN21 (stereo not drawn) [Compound 10a, 6-Amino-10-methyl-8,10b-dihydro-5H-pyrazolo[4′,3′:5,6]pyrano[3,4-e][1,3,4]thiadiazolo[3,2-a]pyrimidin-5-one]	42 ± 1.24	34 ± 0.46	24.2 ± 0.52	40.11 ± 0.36	23.3 ± 0.6
Cc1nn(-c2ccccc2)c2c1C1C(=C(N)O2)C(=O)N=C2SC=NN21 (stereo not drawn) [Compound 10b, 6-Amino-10-methyl-8-phenyl-8,10b-dihydro-5H-pyrazolo[4′,3′:5,6]pyrano[3,4-e][1,3,4]thiadiazolo[3,2-a]pyrimidin-5-one]	37.6 ± 1.26	28.8 ± 1.8	27.4 ± 0.49	27.3 ± 0.53	25.4 ± 0.62
Nc1c2c(=O)nc3scnn3c2nc2nnnn12 [Compound 11, 6-Amino-5H-[1,3,4]thiadiazolo[2′,3′:2,3]pyrimido[4,5-d]tetrazolo[1,5-a]pyrimidin-5-one]	42.2 ± 1.17	38.8 ± 0.74	31.8 ± 0.67	38.1 ± 0.49	20.2 ± 0.39
Nc1c2c(=O)nc3scnn3c2nc2nncn12 [Compound 12, 6-Amino-5H-[1,2,4]triazolo[4′,3′:1,2]pyrimido[5,4-e][1,3,4]thiadiazolo[3,2-a]pyrimidin-5-one]	44.3 ± 1.35	34.1 ± 0.97	36.92 ± 0.29	47.4 ± 0.89	17.7 ± 0.71
Cc1cc2nc3c(c(N)n2n1)c(=O)nc1scnn13 [Compound 13, 6-Amino-9-methyl-5H-pyrazolo[1′,5′:1,2]pyrimido[5,4-e][1,3,4]thiadiazolo[3,2-a]pyrimidin-5-one]	28.6 ± 0.41	30.2 ± 0.59	57.6 ± 1.4	35.6 ± 0.88	44.4 ± 1.24
Cc1ccc(N=Nc2c(N)nn3c(N)c4c(=O)nc5scnn5c4nc23)cc1 [Compound 16a, 6,9-Diamino-10-(4-methylphenylazo)-5H-pyrazolo[1′,5′:1,2]pyrimido[5,4-e][1,3,4]thiadiazolo[3,2-a]pyrimidin-5-one]	37.6 ± 1.26	32.7 ± 0.36	7.53 ± 0.08	44.2 ± 0.94	60.1 ± 2.41
COc1ccc(N=Nc2c(N)nn3c(N)c4c(=O)nc5scnn5c4nc23)cc1 [Compound 16b, 6,9-Diamino-10-(4-methoxyphenylazo)-5H-pyrazolo[1′,5′:1,2]pyrimido[5,4-e][1,3,4]thiadiazolo[3,2-a]pyrimidin-5-one]	42.3 ± 0.75	38.2 ± 0.57	5.69 ± 0.39	47.9 ± 1.48	62.3 ± 3.03
Cc1ccc(N=Nc2c(O)nn3c(N)c4c(=O)nc5scnn5c4nc23)cc1 [Compound 17a, 6-Amino-9-hydroxy-10-(4-methylphenylazo)-5H-pyrazolo[1′,5′:1,2]pyrimido[5,4-e][1,3,4]thiadiazolo[3,2-a]pyrimidin-5-one]	38.27 ± 0.17	29.58 ± 0.15	9.36 ± 0.23	39.4 ± 2.01	57.9 ± 1.18
COc1ccc(N=Nc2c(O)nn3c(N)c4c(=O)nc5scnn5c4nc23)cc1 [Compound 17b, 6-Amino-9-hydroxy-10-(4-methoxyphenylazo)-5H-pyrazolo[1′,5′:1,2]pyrimido[5,4-e][1,3,4]thiadiazolo[3,2-a]pyrimidin-5-one]	33.54 ± 0.25	19 ± 0.4	8.84 ± 0.17	36.8 ± 0.43	58.4 ± 2.29

Source: PMC8333053, “Synthesis and biological screening of new thiadiazolopyrimidine-based polycyclic compounds” (Scientific Reports, 2021)
